Measurements taken from publication PMC9072125 (RSC Advances, 2019).

System: LfDAPDH
Settings: 200 mM NH4Cl, 0.5 mM NADPH, 50 mM Na2CO3/NaHCO3 pH 9.0, 30 °C; reductive amination

In the case of `O=C(O)C(=O)Cc1ccccc1` [PPA], the Km is reported as 7.61 ± 0.14 mM.
